Read-outs that look alike come from different tables or passages of the source. Bridge positions count the residues as written; N and C are the ends. Square brackets hold non-standard residues; d marks the D form. Peptide text beside a SMILES is read from it. dPhe(4-F) = N[C@H](Cc1ccc(F)cc1)C(=O)O; hCys = N[C@@H](CCS)C(=O)O
Columns and labels:
Type in all cases: cell-based
[1] = target: MC5R (Homo sapiens, UniProt P33032); assay: cAMP assay (β-galactosidase reporter, cAMP Hunter), MC5R; details: for Ratios of EC50 values MC 5/4: EC50(MC5R)/EC50(MC4R)
From the text: (§1) cAMP Accumulation Measurement Via a β-Galactosidase (β-Gal) Reporter System
(§2) A chemiluminescence readout system that uses an enzyme fragment complementation (EFC) system with β-galactosidase (β-Gal) as the functional reporter system was used. This assay system for various melanocortin receptor systems is commercially available (cAMP Hunter GPCR assay system, Discoverx Corp, Fremont, Calif.). This assay utilizes the β-Gal enzyme that is split into two complementary portions; EA for Enzyme Acceptor and ED for Enzyme Donor. In the assay, the ED portion fused to cAMP is made to compete with cAMP generated by cells for binding to a cAMP-specific antibody. The EA is then added to form active β-Gal with any unbound ED-cAMP.
(§3) Briefly, 10000 cells per well are plated overnight and each well (cells incubated with 10 μl assay buffer) is then incubated with 4× serial concentration of the test compound in the cell assay buffer (5 μL) and cAMP antibody reagent (5 μL) for 30 min at 37° C. The cell lysis buffer (20 μL) containing ED-cAMP coupled enzyme fragment and the reporter substrate (Emerald II-Galacton Star, 5:1) is then added and incubated for 60 min at room temperature. Next, 20 μL of EA β-Gal fragment reagent is added.

[2] = target: MC3R (Homo sapiens, UniProt P41968); assay: cAMP assay (β-galactosidase reporter, cAMP Hunter), MC3R; details: for Ratios of EC50 values MC ¾: EC50(MC3R)/EC50(MC4R)
From the text: as §1, §2, §3

[3] = target: MC4R (Homo sapiens, UniProt P32245); assay: cAMP assay (β-galactosidase reporter, cAMP Hunter), MC4R
From the text: as §1, §2, §3

[4] = target: MC1R (Homo sapiens, UniProt Q01726); assay: cAMP assay (β-galactosidase reporter, cAMP Hunter), MC1R; details: for Ratios of EC50 values MC ¼: EC50(MC1R)/EC50(MC4R)
From the text: as §1, §2, §3

[5] = agonist cAMP stimulation, read-out: cAMP Assay (EC-50) MC5R
[6] = agonist cAMP stimulation, read-out: cAMP Assay (EC-50) MC3R
[7] = agonist cAMP stimulation, read-out: cAMP Assay (EC-50) MC4R
[8] = agonist cAMP stimulation, read-out: cAMP Assay (EC-50) MC1R
[9] = agonist cAMP stimulation, in uM, read-out: cAMP Assay (EC-50) MC3R

MC5R, sequence (P33032 whole entry): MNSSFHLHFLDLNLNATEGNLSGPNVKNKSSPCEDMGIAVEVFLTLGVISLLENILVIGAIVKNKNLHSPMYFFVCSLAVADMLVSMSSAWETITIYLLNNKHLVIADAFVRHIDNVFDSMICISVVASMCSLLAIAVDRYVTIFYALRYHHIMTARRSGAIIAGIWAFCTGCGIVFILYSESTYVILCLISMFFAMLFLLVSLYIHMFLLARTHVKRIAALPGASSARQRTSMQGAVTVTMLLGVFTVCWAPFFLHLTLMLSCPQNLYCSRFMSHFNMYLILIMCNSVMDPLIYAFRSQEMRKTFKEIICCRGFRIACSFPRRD
MC3R, sequence (P41968 whole entry): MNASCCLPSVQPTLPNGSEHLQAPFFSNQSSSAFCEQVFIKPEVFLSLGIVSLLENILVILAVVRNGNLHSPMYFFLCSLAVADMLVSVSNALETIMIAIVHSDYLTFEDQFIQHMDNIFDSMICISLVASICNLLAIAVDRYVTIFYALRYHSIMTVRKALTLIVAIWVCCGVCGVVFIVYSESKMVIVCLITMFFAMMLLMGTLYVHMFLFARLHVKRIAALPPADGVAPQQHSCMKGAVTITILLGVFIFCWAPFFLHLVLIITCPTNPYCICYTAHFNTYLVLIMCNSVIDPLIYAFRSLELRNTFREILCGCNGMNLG
MC1R, sequence (Q01726 whole entry): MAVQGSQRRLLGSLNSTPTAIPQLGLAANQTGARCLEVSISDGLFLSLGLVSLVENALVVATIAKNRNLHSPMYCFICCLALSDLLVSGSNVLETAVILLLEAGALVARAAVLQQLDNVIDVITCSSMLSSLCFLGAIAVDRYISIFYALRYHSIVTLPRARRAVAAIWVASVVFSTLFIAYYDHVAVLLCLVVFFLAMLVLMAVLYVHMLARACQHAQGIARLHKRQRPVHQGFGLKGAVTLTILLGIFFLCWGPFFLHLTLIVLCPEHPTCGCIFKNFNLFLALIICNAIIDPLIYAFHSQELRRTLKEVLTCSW
MC4R, sequence (P32245 whole entry): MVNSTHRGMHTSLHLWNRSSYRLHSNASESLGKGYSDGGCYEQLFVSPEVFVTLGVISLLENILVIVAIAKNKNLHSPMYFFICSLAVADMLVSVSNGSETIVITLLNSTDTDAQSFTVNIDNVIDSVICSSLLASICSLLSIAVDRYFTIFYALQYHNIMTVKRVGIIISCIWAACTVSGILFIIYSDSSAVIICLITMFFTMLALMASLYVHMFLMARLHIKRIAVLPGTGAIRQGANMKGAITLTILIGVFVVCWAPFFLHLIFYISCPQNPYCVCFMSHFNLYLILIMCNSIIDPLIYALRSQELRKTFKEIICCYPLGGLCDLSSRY

Ratios of EC50 values MC 5/4 [1]	EC50 [1, 5]	Ratios of EC50 values MC ¾ [2]	EC50 [2, 6]	EC50 [3, 7]	Ratios of EC50 values MC ¼ [4]	EC50 [4, 8]	EC50 [2, 9]	Structure (SMILES)	EC50 [1]	EC50 [2]	EC50 [3]	EC50 [4]
130	91 nM	1.13	0.00079 µM	0.7 nM	0.68	0.47 nM	–	CC(=O)N[C@@H](CCCNC(=N)N)C(=O)N[C@H]1CSSC[C@@H](C(N)=O)NC(=O)[C@H](Cc2c[nH]c3ccccc23)NC(=O)[C@H](CCCNC(=N)N)NC(=O)[C@@H](Cc2ccccc2)NC(=O)[C@H](Cc2c[nH]cn2)NC(=O)[C@@H](CC(C)C)NC1=O [Compound 1, Ac-Arg-cyclo[Cys-D-Leu-His-D-Phe-Arg-Trp-Cys]-NH2]	–	–	–	–
420	420 nM	0.96	0.00096 µM	1 nM	0.69	0.69 nM	–	CC[C@@H](C)[C@H]1NC(=O)[C@@H](NC(=O)[C@H](CCCNC(=N)N)NC(C)=O)CSSC[C@@H](C(N)=O)NC(=O)[C@H](Cc2c[nH]c3ccccc23)NC(=O)[C@H](CCCNC(=N)N)NC(=O)[C@@H](Cc2ccccc2)NC(=O)[C@H](Cc2c[nH]cn2)NC1=O [Compound 2, Ac-Arg-cyclo[Cys-D-Ile-His-D-Phe-Arg-Trp-Cys]-NH2]	–	–	–	–
930	672 nM	1	0.0007 µM	0.7 nM	1	1 nM	–	CC(=O)N[C@@H](CCCNC(=N)N)C(=O)N[C@H]1CSSC[C@@H](C(N)=O)NC(=O)[C@H](Cc2c[nH]c3ccccc23)NC(=O)[C@H](CCCNC(=N)N)NC(=O)[C@@H](Cc2ccccc2)NC(=O)[C@H](Cc2c[nH]cn2)NC(=O)[C@@H](C(C)(C)C)NC1=O [Compound 3, Ac-Arg-cyclo[Cys-D-Tle-His-D-Phe-Arg-Trp-Cys]-NH2]	–	–	–	–
584	782 nM	1.19	0.00159 µM	1.34 nM	0.93	1.25 nM	–	CC(=O)N[C@@H](CCCNC(=N)N)C(=O)N[C@H]1CSSC[C@@H](C(N)=O)NC(=O)[C@H](Cc2c[nH]c3ccccc23)NC(=O)[C@H](CCCNC(=N)N)NC(=O)[C@@H](Cc2ccccc2)NC(=O)[C@H](Cc2c[nH]cn2)NC(=O)[C@@H](C(C)C)NC1=O [Compound 4, Ac-Arg-cyclo[Cys-D-Val-His-D-Phe-Arg-Trp-Cys]-NH2]	–	–	–	–
7	259 nM	>290	–	34 nM	8	273 nM	> 10 µM	CC(=O)N[C@@H](CCCNC(=N)N)C(=O)N[C@H]1CSSC[C@@H](C(N)=O)NC(=O)[C@H](Cc2c[nH]c3ccccc23)NC(=O)[C@H](CCCNC(=N)N)NC(=O)[C@@H](Cc2ccccc2)NC(=O)[C@H](Cc2c[nH]c3ccccc23)NC(=O)[C@@H](C)NC1=O [Compound 7, Ac-Arg-cyclo[Cys-D-Ala-Trp-D-Phe-Arg-Trp-Cys ]-NH2] (Ac-RC[dA]W[dF]RWC-NH2; disulfide 2-8)	–	–	–	–
155	255 nM	5	0.0086 µM	1.6 nM	40	71 nM	–	CC(=O)N[C@@H](CCCNC(=N)N)C(=O)N[C@H]1CSSC[C@@H](C(N)=O)NC(=O)[C@H](Cc2c[nH]c3ccccc23)NC(=O)[C@H](CCCNC(=N)N)NC(=O)[C@@H](Cc2ccccc2)NC(=O)[C@H](CCC(N)=O)NC(=O)[C@@H](C)NC1=O [Compound 8, Ac-Arg-cyclo[Cys-D-Ala-Gln-D-Phe-Arg-Trp-Cys]-NH2] (Ac-RC[dA]Q[dF]RWC-NH2; disulfide 2-8)	–	–	–	–
530	1490 nM	30	0.081 µM	3 nM	90	248 nM	–	CC(=O)N[C@@H](CCCNC(=N)N)C(=O)N[C@H]1CSSC[C@@H](C(N)=O)NC(=O)[C@H](Cc2c[nH]c3ccccc23)NC(=O)[C@H](CCCNC(=N)N)NC(=O)[C@@H](Cc2ccccc2)NC(=O)[C@H](CC(N)=O)NC(=O)[C@@H](C)NC1=O [Compound 9, Ac-Arg-cyclo[Cys-D-Ala-Asn-D-Phe-Arg-Trp-Cys]-NH2] (Ac-RC[dA]N[dF]RWC-NH2; disulfide 2-8)	–	–	–	–
–	–	1.45	0.0039 µM	2.7 nM	2.31	6.2 nM	–	CC(=O)N[C@@H](CCCNC(=N)N)C(=O)N[C@H]1CSSC[C@@H](C(N)=O)NC(=O)[C@H](Cc2c[nH]c3ccccc23)NC(=O)[C@H](CCCNC(=N)N)NC(=O)[C@@H](Cc2ccccc2)NC(=O)[C@H](CCCNC(=N)N)NC(=O)[C@@H](C)NC1=O [Compound 10, Ac-Arg-cyclo[Cys-D-Ala-Arg-D-Phe-Arg-Trp-Cys]-NH2] (Ac-RC[dA]R[dF]RWC-NH2; disulfide 2-8)	–	–	–	–
–	–	>22.2	> 1 µM	45.1 nM	6.67	301 nM	–	CC(=O)N[C@@H](CCCNC(=N)N)C(=O)N[C@H]1CSSC[C@@H](C(N)=O)NC(=O)[C@H](Cc2c[nH]c3ccccc23)NC(=O)[C@H](CCCNC(=N)N)NC(=O)[C@@H](Cc2ccccc2)NC(=O)[C@H](Cc2ccc(O)cc2)NC(=O)[C@@H](C)NC1=O [Compound 11, Ac-Arg-cyclo[Cys-D-Ala-Tyr-D-Phe-Arg-Trp-Cys]-NH2] (Ac-RC[dA]Y[dF]RWC-NH2; disulfide 2-8)	–	–	–	–
13	707 nM	>200	–	56 nM	5	280 nM	> 10 µM	CC(=O)N[C@@H](CCCNC(=N)N)C(=O)N[C@H]1CSSC[C@@H](C(N)=O)NC(=O)[C@H](Cc2c[nH]c3ccccc23)NC(=O)[C@H](CCCNC(=N)N)NC(=O)[C@@H](Cc2ccccc2)NC(=O)[C@@H]2CCCN2C(=O)[C@@H](C)NC1=O [Compound 13, Ac-Arg-cyclo[Cys-D-Ala-Pro-D-Phe-Arg-Trp-Cys]-NH2] (Ac-RC[dA]P[dF]RWC-NH2; disulfide 2-8)	–	–	–	–
12	283 nM	>400	–	24 nM	7	169 nM	> 10 µM	CC(=O)N[C@@H](CCCNC(=N)N)C(=O)N[C@H]1CSSC[C@@H](C(N)=O)NC(=O)[C@H](Cc2c[nH]c3ccccc23)NC(=O)[C@H](CCCNC(=N)N)NC(=O)[C@@H](Cc2ccc(F)cc2)NC(=O)[C@@H]2CCCN2C(=O)[C@@H](C)NC1=O [Compound 14, Ac-Arg-cyclo[Cys-D-Ala-Pro-D-Phe(p-F)-Arg-Trp-Cys]-NH2] (Ac-RC[dA]P[dPhe(4-F)]RWC-NH2; disulfide 2-8)	–	–	–	–
161	42 nM	3.8	0.001 µM	0.26 nM	15	4 nM	–	CC(=O)N[C@@H](CCCNC(=N)N)C(=O)N[C@H]1CCSSC[C@@H](C(N)=O)NC(=O)[C@H](Cc2c[nH]c3ccccc23)NC(=O)[C@H](CCCNC(=N)N)NC(=O)[C@@H](Cc2ccccc2)NC(=O)[C@H](C)NC1=O [Compound 15, Ac-Arg-cyclo[hCys-Ala-D-Phe-Arg-Trp-Cys]-NH2] (Ac-R[hCys]A[dF]RWC-NH2; disulfide 2-7)	–	–	–	–

Structure (SMILES)	Ratios of EC50 values MC 5/4 [1]	EC50 [1, 5]	Ratios of EC50 values MC ¾ [2]	EC50 [2, 6]	EC50 [3, 7]	Ratios of EC50 values MC ¼ [4]	EC50 [4, 8]	EC50 [2, 9]	EC50 [1]	EC50 [2]	EC50 [3]	EC50 [4]
CC(=O)N[C@@H](CCCNC(=N)N)C(=O)N[C@H]1CSSC[C@@H](C(N)=O)NC(=O)[C@H](Cc2c[nH]c3ccccc23)NC(=O)[C@H](CCCNC(=N)N)NC(=O)[C@@H](Cc2ccccc2)NC(=O)[C@H](Cc2cncn2C)NC(=O)[C@@H](C)NC1=O [Compound 5, Ac-Arg-cyclo[Cys-D-Ala-His(3-Me)-D-Phe-Arg-Trp-Cys]-NH2]	945	–	350	–	–	4	–	–	1080 nM	0.406 µM	1.15 nM	4.1 nM
CC(=O)N[C@@H](CCCNC(=N)N)C(=O)N[C@H]1CSSC[C@@H](C(N)=O)NC(=O)[C@H](Cc2c[nH]c3ccccc23)NC(=O)[C@H](CCCNC(=N)N)NC(=O)[C@@H](Cc2ccccc2)NC(=O)[C@H](Cc2cn(C)cn2)NC(=O)[C@@H](C)NC1=O [Compound 6, Ac-Arg-cyclo[Cys-D-Ala-His(1-Me)-D-Phe-Arg-Trp-Cys]-NH2]	662	–	6	–	–	40	–	–	467 nM	0.0043 µM	0.7 nM	30.4 nM

Reference: US10196425B2, “Peptide compositions” (RHYTHM PHARMACEUTICALS, INC., priority 2013, dated 2019)
